In patent US20240285637A1, “PHOSPHODIESTERASE INHIBITORS FOR THE MITIGATION OF FRAGILE X SYNDROME SYMPTOMS” (THE ROYAL INSTITUTION FOR THE ADVANCEMENT OF …, priority 2021, published 2024):
“Also recorded” adds a separate entry of the source.

Columns and labels:
Assay type in all cases: cell-based, mouse
[1] = system: cerebellar stellate cells; experiment: Minimal stimulation protocol, evoked IPSCs before and after HFS (failure rate of GABAergic transmission)
[2] = system: cerebellar stellate cells; experiment: Cell-attached recordings of action currents (intrinsic plasticity) after HFS of parallel fibers; conditions: WT stellate cells, 10 μM APV, 25 minutes after HFS
From the text: Cerebellum slice preparation: Mice (P21-35) were anesthetized with isoflurane and immediately decapitated. A block of cerebellar vermis was rapidly dissected from the mouse head and submerged in an ice-cold cutting solution perfused with carbogen gas (95% O2, 5% CO2). Cutting solution contains (in mM): 235 sucrose, 2.5 KCl, 1.25 NaH2PO4, 28 NaHCO3, 0.5 CaCl2, 7 MgCl2, 28 D-glucose, 1 ascorbic acid, and 3 sodium pyruvate (pH 7.4; 305-315 mOsmol/L). The block of vermis was then fastened to a platform, transferred to the slicing chamber and again submerged in ice-cold cutting solution, bubbled with carbogen throughout the remainder of the procedure. Thin slices of cerebellar vermis (300 μm) were obtained with a vibrating tissue sectioner (Leica VT1200; Leica Instruments, Nussloch, Germany). The slices were transferred to oxygenated artificial cerebrospinal fluid (ACSF) and held at room temperature (21° C.-23° C.) for at least 1 h before recordings were performed. […]
For extracellular stimulations, thin walled borosilicate glass electrodes (OD 1.65 mm, ID 1.15 mm; King Precision Glass Inc, Claremont, CA, USA) were used with a tip resistance of <3 MΩ when filled with ACSF. […] To minimize variability between responses, the stimulating electrode was positioned 50-100 μm away from the recorded cell. […]

[3] = system: blood vessels (capillaries) in the molecular layer of the cerebellum; experiment: Acute slice vascular reactivity, cerebellar vermis slices (U46619 constriction, NMDA dilation); parameters: effect on the NMDA response (vasodilation) / vasodilation (direct action on blood vessels): dose or concentration left out as unconfirmed; conditions: for vasodilation of pre-constricted blood vessels: NMDA 50 μM, 5 mins, after U46619
[4] = system: blood vessels in the somatosensory cortex; experiment: Acute slice vascular reactivity, somatosensory cortex; parameters: effect on the NMDA response (vasodilation) / vasodilation (direct action on blood vessels): dose or concentration left out as unconfirmed; conditions: for vasodilation of pre-constricted blood vessels: bath application of NMDA
[5] = system: middle or posterior cerebral arteries; experiment: Vascular reactivity of isolated pressurized cerebral arteries; conditions: various concentrations, extraluminal application
Procedure: Vascular reactivity: Middle or posterior cerebral arteries were isolated from both WT (n=9) and Fmr1-KO (n=4) mice and vessel diameter was measured using video microscopy (Living Systems Instrumental, Burlington, VT) as previously described. Blood vessels were cannulated in a closed sac preparation in 1×KREBS buffer, and gradually pressurized to 60 mmHg. Vasoconstriction was measured in response to extraluminal application of either thromboxane A2 receptor agonist U46619, NMDA, or acetylcholine (ACh) at increasing concentrations (10-9 to 10-3 mol/L, Tocris Bioscience Ellisville, MO, USA). Data is presented as a percentage change from the basal diameter.

[6] = Fmr1 KO stellate cells, 10 μM external MPEP, baseline, n=7
[7] = Fmr1 KO stellate cells, 10 μM external MPEP, post-HFS, n=7

N[C@H](CCCP(=O)(O)O)C(=O)O [APV, (2R)-amino-5-phosphonovaleric acid]
decrease of failure rate post-HFS ([1]; WT mice, in the presence of APV, data not shown): ~5%
long-term increase in basal firing rates after HFS of PFs [2]: no long-term increase; also recorded: no increase in action potential firing

O=C(O)CN(CC(=O)O)c1ccccc1OCCOc1ccccc1N(CC(=O)O)CC(=O)O [BAPTA, 1,2-bis(o-aminophenoxy)ethane-N,N,N′,N′-tetraacetic acid)]
change of failure rate post-HFS ([1]; WT mice, high BAPTA internal solution, data not shown): did not change their failure rate

COc1ccc2c(c1)c(C1=C(c3c[nH]c4ccccc34)C(=O)NC1=O)cn2CCCN(C)C [Gö6983]
change of failure rate from baseline to post-HFS ([1]; WT mice, kinase (PKC) inhibitor): did not change

Cc1cccc(C#Cc2ccccc2)n1 [MPEP, 2-Methyl-6-(phenylethynyl)-pyridine]
onset of iLTD ([1]; Fmr1 KO stellate cells, 10 μM MPEP): prevents the onset of iLTD
failure rate of GABAergic transmission (mean) [1, 6]: 77.21+/−3.75%
time latency of synaptic events (mean) [1, 6]: 2.78 ± 0.24 ms
failure rate of GABA-evoked events (mean) [1, 7]: 79.98+/−4.58%
time latency of synaptic events (mean) [1, 7]: 2.32 ± 0.29 ms
change of failure rate after HFS protocol ([1]; α3 KO mice, MPEP, data not shown): slightly decreased their failure rate

CN[C@H](CC(=O)O)C(=O)O [NMDA, N-methyl-D-aspartate]
vasodilation of pre-constricted blood vessels ([3]; Fmr1 KO cerebellar slices): failed to promote blood vessel dilation; also recorded: failed to induce vasodilation
vasodilation of pre-constricted blood vessels ([3]; WT cerebellar slices): caused vasodilation; also recorded: robust vasodilation
vasodilation of pre-constricted blood vessels ([4]; Fmr1 KO cortex): failed to induce vasodilation
vasodilation of pre-constricted blood vessels ([4]; wildtype cortical blood vessels): robust vasodilation

CCCCC[C@H](O)/C=C/[C@@H]1[C@@H](C/C=C\CCCC(=O)O)[C@H]2CO[C@@H]1C2 [U46619]
vasoconstriction of MCA/PCA, Fmr1 KO compared to WT [5]: reduced
frequency of blood vessel constriction, Fmr1 KO brain slices compared to WT ([3]; 75 nM): much less frequently
vasoconstriction, Fmr1 KO brain slices compared to WT ([3]; 150 nM): reduced vasoconstriction
blood vessels with no response (no constriction), number ([3]; Fmr1 KO mice, [U46619] 75 nM): 2
blood vessels with response (constricted), number ([3]; Fmr1 KO mice, [U46619] 75 nM): 8
proportion of blood vessels that constricted ([3]; Fmr1 KO mice, [U46619] 75 nM): 80%
blood vessels with no response (no constriction), number ([3]; Fmr1 KO mice, [U46619] 150 nM): 11
blood vessels with response (constricted), number ([3]; Fmr1 KO mice, [U46619] 150 nM): 25
proportion of blood vessels that constricted ([3]; Fmr1 KO mice, [U46619] 150 nM): 69%
blood vessels with no response (no constriction), number ([3]; WT mice, [U46619] 75 nM): 3
blood vessels with response (constricted), number ([3]; WT mice, [U46619] 75 nM): 10
proportion of blood vessels that constricted ([3]; WT mice, [U46619] 75 nM): 77%
blood vessels with no response (no constriction), number ([3]; WT mice, [U46619] 150 nM): 2
blood vessels with response (constricted), number ([3]; WT mice, [U46619] 150 nM): 18
proportion of blood vessels that constricted ([3]; WT mice, [U46619] 150 nM): 90%
ability to vasoconstrict blood vessels, WT vs Fmr1 KO in all the conditions ([3]; cerebellum (FIG. 5N)): similar
ability to vasoconstrict blood vessels, WT vs Fmr1 KO in all the conditions ([4]; cortex (FIG. 5O)): similar

COc1ccc(Cc2nccc3cc(OC)c(OC)cc23)cc1OC [papaverine]
vasodilation (direct action on blood vessels) ([3]; Fmr1 KO cerebellum): able to induce vasodilation
vasodilation (direct action on blood vessels) ([4]; Fmr1 KO cortex): able to induce vasodilation

NC1=N[C@H](O)[C@H]2[C@H]3O[C@]4(O)O[C@@H]([C@@H](O)[C@@]2(N1)[C@@H]4O)[C@]3(O)CO [tetrodotoxin]
effect on NMDA-induced vasodilation [3]: completely blocked vasodilation
effect on NMDA-induced vasodilation [4]: blocked
